Test results reported in ChEMBL document CHEMBL2440076, “New triarylpyrazoles as broad-spectrum anticancer agents: design, synthesis, and biological evaluation” (Eur J Med Chem, 2013).

How the values were obtained:
Format in all cases: functional
HT-29 = experiment: Growth inhibition of human HT-29 cells assessed as cell growth at 5X10'-9 M after 48 hrs by sulforhodamine B assay; details: HT-29, 48 h, read-out: Activity
SF-539 = experiment: Growth inhibition of human SF539 cells assessed as cell growth at 5X10'-5 M after 48 hrs by sulforhodamine B assay; details: SF-539, 48 h, read-out: Activity
SF-295 = experiment: Growth inhibition of human SF295 cells assessed as cell growth at 5X10'-5 M after 48 hrs by sulforhodamine B assay; details: SF-295, 48 h, read-out: Activity
SW-620 = experiment: Growth inhibition of human SW620 cells assessed as cell growth at 5X10'-5 M after 48 hrs by sulforhodamine B assay; details: SW-620, 48 h, read-out: Activity
K562 = experiment: Growth inhibition of human K562 cells assessed as cell growth at 5X10'-5 M after 48 hrs by sulforhodamine B assay; details: K562, 48 h, read-out: Activity
MDA-MB-231 = experiment: Growth inhibition of human MDA-MB-231 cells assessed as cell growth at 5X10'-6 M after 48 hrs by sulforhodamine B assay; details: MDA-MB-231, 48 h, read-out: Activity
TK-10 = experiment: Growth inhibition of human TK10 cells assessed as cell growth at 5X10'-6 M after 48 hrs by sulforhodamine B assay; details: TK-10, 48 h, read-out: Activity
ACHN = experiment: Growth inhibition of human ACHN cells assessed as cell growth at 5X10'-6 M after 48 hrs by sulforhodamine B assay; details: read-out: Activity
SK-MEL-28 = experiment: Growth inhibition of human SK-MEL-28 cells assessed as cell growth at 5X10'-6 M after 48 hrs by sulforhodamine B assay; details: SK-MEL-28, 48 h, read-out: Activity
M14 = experiment: Growth inhibition of human M14 cells assessed as cell growth at 5X10'-6 M after 48 hrs by sulforhodamine B assay; details: M14, 48 h, read-out: Activity
NCI-H460 = experiment: Growth inhibition of human NCI-H460 cells assessed as cell growth at 5X10'-9 M after 48 hrs by sulforhodamine B assay; details: NCI-H460, 48 h, read-out: Activity
HOP-92 = experiment: Growth inhibition of human HOP92 cells assessed as cell growth at 5X10'-9 M after 48 hrs by sulforhodamine B assay; details: HOP-92, 48 h, read-out: Activity
HOP-62 [1] = experiment: Growth inhibition of human HOP62 cells assessed as cell growth at 5X10'-9 M after 48 hrs by sulforhodamine B assay; details: HOP-62, 48 h, read-out: Activity
HL-60(TB) = experiment: Growth inhibition of human HL-60(TB) cells assessed as cell growth at 5X10'-9 M after 48 hrs by sulforhodamine B assay; details: HL-60, 48 h, read-out: Activity
CCRF-CEM = experiment: Growth inhibition of human CCRF-CEM cells assessed as cell growth at 5X10'-9 M after 48 hrs by sulforhodamine B assay; details: read-out: Activity
LOX IMVI = experiment: Growth inhibition of human LOXIMVI cells assessed as cell growth at 5X10'-6 M after 48 hrs by sulforhodamine B assay; details: read-out: Activity
HCT-116 = experiment: Growth inhibition of human HCT116 cells assessed as cell growth at 5X10'-6 M after 48 hrs by sulforhodamine B assay; details: HCT-116, 48 h, read-out: Activity
HOP-62 [2] = experiment: Growth inhibition of human HOP62 cells assessed as cell growth at 5X10'-6 M after 48 hrs by sulforhodamine B assay; details: HOP-62, 48 h, read-out: Activity
786-0 [3] = experiment: Growth inhibition of human 786-0 cells assessed as cell growth at 5X10'-7 M after 48 hrs by sulforhodamine B assay; details: 786-0, 48 h, read-out: Activity
OVCAR-8 = experiment: Growth inhibition of human OVCAR8 cells assessed as cell growth at 5X10'-7 M after 48 hrs by sulforhodamine B assay; details: OVCAR-8, 48 h, read-out: Activity
NCI-H23 = experiment: Growth inhibition of human NCI-H23 cells assessed as cell growth at 5X10'-7 M after 48 hrs by sulforhodamine B assay; details: NCI-H23, 48 h, read-out: Activity
RPMI-8226 = experiment: Growth inhibition of human RPMI8226 cells assessed as cell growth at 5X10'-7 M after 48 hrs by sulforhodamine B assay; details: RPMI-8226, 48 h, read-out: Activity
SR = experiment: Growth inhibition of human SR cells assessed as cell growth at 5X10'-7 M after 48 hrs by sulforhodamine B assay; details: read-out: Activity
[4] = Growth inhibition of human Hs 578T cells assessed as cell growth at 5X10'-8 M after 48 hrs by sulforhodamine B assay; details: read-out: Activity
CAKI-1 = experiment: Growth inhibition of human CAKI-1 cells assessed as cell growth at 5X10'-8 M after 48 hrs by sulforhodamine B assay; details: CAKI-1, 48 h, read-out: Activity
786-0 [5] = experiment: Growth inhibition of human 786-0 cells assessed as cell growth at 5X10'-8 M after 48 hrs by sulforhodamine B assay; details: 786-0, 48 h, read-out: Activity
SK-OV-3 = experiment: Growth inhibition of human SKOV3 cells assessed as cell growth at 5X10'-8 M after 48 hrs by sulforhodamine B assay; details: SK-OV-3, 48 h, read-out: Activity
KM12 = experiment: Growth inhibition of human KM12 cells assessed as cell growth at 5X10'-8 M after 48 hrs by sulforhodamine B assay; details: KM12, 48 h, read-out: Activity
DU-145 = experiment: Growth inhibition of human DU145 cells assessed as cell growth at 5X10'-5 M after 48 hrs by sulforhodamine B assay; details: DU-145, 48 h, read-out: Activity
PC-3 = experiment: Growth inhibition of human PC3 cells assessed as cell growth at 5X10'-5 M after 48 hrs by sulforhodamine B assay; details: PC-3, 48 h, read-out: Activity
UACC-62 = experiment: Growth inhibition of human UACC62 cells assessed as cell growth at 5X10'-5 M after 48 hrs by sulforhodamine B assay; details: UACC-62, 48 h, read-out: Activity
SK-MEL-5 = experiment: Growth inhibition of human SK-MEL-5 cells assessed as cell growth at 5X10'-5 M after 48 hrs by sulforhodamine B assay; details: SK-MEL-5, 48 h, read-out: Activity
MOLT-4 = experiment: Growth inhibition of human MOLT4 cells assessed as cell growth at 5X10'-8 M after 48 hrs by sulforhodamine B assay; details: MOLT-4, 48 h, read-out: Activity
[6] = Growth inhibition of human NCI-ADR-RES cells assessed as cell growth at 5X10'-9 M after 48 hrs by sulforhodamine B assay; details: read-out: Activity
OVCAR-3 = experiment: Growth inhibition of human OVCAR3 cells assessed as cell growth at 5X10'-9 M after 48 hrs by sulforhodamine B assay; details: OVCAR-3, 48 h, read-out: Activity
Malme-3M = experiment: Growth inhibition of human MALME-3M cells assessed as cell growth at 5X10'-9 M after 48 hrs by sulforhodamine B assay; details: read-out: Activity

COc1cc(-c2nn(-c3cccc(NC(=O)Nc4cccc(C(F)(F)F)c4)c3)cc2-c2ccncc2)ccc1Cl
growth at 0.005 µM (HT-29): 99% | growth at 50 µM (SF-539): -58% | growth at 50 µM (SF-295): -77% | growth at 50 µM (SW-620): -6% | growth at 50 µM (K562): 1% | growth at 5 µM (MDA-MB-231): -35% | growth at 5 µM (TK-10): 10% | growth at 5 µM (ACHN): -8% | growth at 5 µM (SK-MEL-28): -18% | growth at 5 µM (M14): -54% | growth at 0.005 µM (NCI-H460): 100% | growth at 0.005 µM (HOP-92): 93% | growth at 0.005 µM (HOP-62 [1]): 93% | growth at 0.005 µM (HL-60(TB)): 90% | growth at 0.005 µM (CCRF-CEM): 104% | growth at 5 µM (LOX IMVI): -75% | growth at 5 µM (HCT-116): 3% | growth at 5 µM (HOP-62 [2]): -9% | growth at 0.5 µM (786-0 [3]): 91% | growth at 0.5 µM (OVCAR-8): 65% | growth at 0.5 µM (NCI-H23): 90% | growth at 0.5 µM (RPMI-8226): 40% | growth at 0.5 µM (SR): 75% | growth at 0.05 µM [4]: 96% | growth at 0.05 µM (CAKI-1): 98% | growth at 0.05 µM (786-0 [5]): 95% | growth at 0.05 µM (SK-OV-3): 99% | growth at 0.05 µM (KM12): 97% | growth at 50 µM (DU-145): 1% | growth at 50 µM (PC-3): -22% | growth at 50 µM (UACC-62): -87% | growth at 50 µM (SK-MEL-5): -97% | growth at 0.05 µM (MOLT-4): 92% | growth at 0.005 µM [6]: 99% | growth at 0.005 µM (OVCAR-3): 108% | growth at 0.005 µM (Malme-3M): 86%
